Measurements: the supplement of paper PMC10949913

Legend:
Conditions in all cases: 48 h
[1] = tested on: CU-ACC1; assay: area under concentration-response curve (viability) (AUC (a.u.)); higher = less active
In short: (§1)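 Three adrenocortical carcinoma cell lines in 1,536-well plates received 23 nL of each library compound at 11 concentrations and were read with CellTiter-Glo after 48 h, with 15 minutes at room temperature before measuring luminescence. Vehicle and empty-well controls served for per-plate normalisation. AC50 and area under the curve were extracted from fitted concentration-response curves, discarding all curve classes other than inhibitory or non-responding.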

[2] = tested on: CU-ACC2; assay: as above
In short: as §1

[3] = tested on: NCI-H295R; assay: as above
In short: as §1

[4] = tested on: CU-ACC1; assay: AC50 viability; higher = less potent
In short: as §1

[5] = tested on: NCI-H295R; assay: AC50 viability; higher = less potent
In short: as §1

CC[C@@H](C)Nc1cc(C(=O)NC2CC3CCC(C2)N3c2ccc(C(=O)C3CC3)cn2)c(C)cc1C(N)=O (some centres not stated)
area under concentration-response curve [1]: 346 | area under concentration-response curve [2]: 436 | area under concentration-response curve [3]: 382 | AC50 viability [4]: 1.32 µM | AC50 viability [5]: 0.934 µM

CC(=O)Nc1ccc(C(=O)Nc2ccccc2N)cc1
area under concentration-response curve [1]: 413 | area under concentration-response curve [2]: 408 | area under concentration-response curve [3]: 445 | AC50 viability [4]: 7.42 µM | AC50 viability [5]: 18.6 µM

CCNC(=O)C[C@@H]1\N=C(C2=CC=C(Cl)C=C2)/C3=C(C=CC(=C3)OC)[N]4C(=NN=C14)C
area under concentration-response curve [1]: 423 | area under concentration-response curve [2]: 500 | area under concentration-response curve [3]: 457 | AC50 viability [4]: 13.2 µM | AC50 viability [5]: 8.33 µM

Cc1cccc(-c2[nH]c(C(C)(C)C)nc2-c2ccc3c(c2)OCO3)n1
area under concentration-response curve [1]: 426 | area under concentration-response curve [2]: 595 | area under concentration-response curve [3]: 481 | AC50 viability [4]: 5.25 µM | AC50 viability [5]: 11.8 µM

O=[S+]([O-])(Nc1ccc(-c2cccnc2)c2cccnc12)c1cccc(C(F)(F)F)c1
area under concentration-response curve [1]: 456 | area under concentration-response curve [2]: 595 | area under concentration-response curve [3]: 486 | AC50 viability [4]: 4.68 µM | AC50 viability [5]: 4.17 µM

NC(=O)c1ccc2[nH]c(-c3ccc(Oc4ccc(Cl)cc4)cc3)nc2c1
area under concentration-response curve [1]: 450 | area under concentration-response curve [2]: 573 | area under concentration-response curve [3]: 507 | AC50 viability [4]: 33.2 µM | AC50 viability [5]: 26.3 µM

C[C@@H]1O[C@@H](O[C@@H]2C=C3CC[C@@H]4[C@H](CC[C@]5(C)[C@@H](c6ccc(=O)oc6)CC[C@]45O)[C@@]3(C)CC2)[C@H](O)[C@H](O)[C@H]1O
area under concentration-response curve [1]: 219 | area under concentration-response curve [2]: 307 | area under concentration-response curve [3]: 277 | AC50 viability [4]: 0.0148 µM | AC50 viability [5]: 0.0332 µM

CCc1ccc(C(=O)Nc2cc(CN3CCN(C)CC3)cc(C(F)(F)F)c2)cc1C#Cc1cnc2ccnn2c1
area under concentration-response curve [1]: 453 | area under concentration-response curve [2]: 559 | area under concentration-response curve [3]: 431 | AC50 viability [4]: 7.42 µM | AC50 viability [5]: 8.33 µM

N#Cc1ccc(-c2c(-c3nnc[nH]3)sc(N3CCOCC3)c2C#N)c(F)c1
area under concentration-response curve [1]: 465 | area under concentration-response curve [2]: 568 | area under concentration-response curve [3]: 478 | AC50 viability [4]: 7.42 µM | AC50 viability [5]: 4.68 µM

[2H]C([2H])(Nc1nc(-c2ccccc2C([2H])(C([2H])([2H])[2H])C([2H])([2H])[2H])ncc1C)c1ccc(-n2ccnn2)cc1
area under concentration-response curve [1]: 469 | area under concentration-response curve [3]: 531 | AC50 viability [4]: 16.6 µM | AC50 viability [5]: 9.34 µM

NCCCN([C@H](CC#C)C/1=N/C2=C(C=CC(=C2)Cl)C(=O)N1NC3=CC=CC=C3)C(=O)C4=CC=CC(=C4F)Cl
area under concentration-response curve [1]: 429 | area under concentration-response curve [3]: 484 | AC50 viability [4]: 33.2 µM | AC50 viability [5]: 20.9 µM

NC(=O)c1cccc(-c2cc(Nc3ccc(OC(F)(F)F)cc3)ncn2)c1
area under concentration-response curve [1]: 488 | area under concentration-response curve [3]: 538 | AC50 viability [4]: 16.6 µM | AC50 viability [5]: 20.9 µM

NCC1CCN(c2nccc(-c3ccc4ccccc4c3)n2)CC1
area under concentration-response curve [1]: 477 | area under concentration-response curve [3]: 492 | AC50 viability [4]: 23.5 µM | AC50 viability [5]: 16.6 µM

ClC1=CC=C(CCCOC/2=N/NC(=O)C(=C2NCC3=CN=CC=C3)/Br)C=C1
area under concentration-response curve [1]: 358 | area under concentration-response curve [3]: 457 | AC50 viability [4]: 3.72 µM | AC50 viability [5]: 10.5 µM

Nc1ccc(F)cc1NC(=O)c1ccc(CNC(=O)/C=C/c2cccnc2)cc1
area under concentration-response curve [1]: 341 | area under concentration-response curve [3]: 433 | AC50 viability [4]: 9.34 µM | AC50 viability [5]: 8.33 µM

CCNc1cc(NC2CCC(O)CC2)nc(Nc2ccc3c(ccn3Cc3ccccc3)c2)n1 (configuration not stated)
area under concentration-response curve [1]: 149 | area under concentration-response curve [3]: 156 | AC50 viability [4]: 0.0235 µM | AC50 viability [5]: 1.18 µM

CC(C)C(=O)Nc1ncc(-c2cc(C(F)F)nn2-c2c(Cl)cccc2Cl)s1
area under concentration-response curve [1]: 472 | area under concentration-response curve [3]: 507 | AC50 viability [4]: 23.5 µM | AC50 viability [5]: 23.5 µM

FC(F)(F)C1=CC=C2C(SCCCCCO\C3=C\O\C(CN4CCOCC4)=C/C3=O)=CC=NC2=C1
area under concentration-response curve [1]: 295 | area under concentration-response curve [3]: 324 | AC50 viability [4]: 8.33 µM | AC50 viability [5]: 18.6 µM

O=C(C(c1ccccc1)c1ccccc1)N1CCN(CC(O)COc2cccc3ncccc23)CC1 (configuration not stated)
area under concentration-response curve [1]: 467 | area under concentration-response curve [3]: 524 | AC50 viability [4]: 23.5 µM | AC50 viability [5]: 16.6 µM

Cc1c(C(=O)Nc2ccc(N3C[C@@H](C)O[C@@H](C)C3)nc2)cccc1-c1ccc(OC(F)(F)F)cc1
area under concentration-response curve [1]: 519 | area under concentration-response curve [3]: 572 | AC50 viability [4]: 18.6 µM | AC50 viability [5]: 20.9 µM

Cl.Cl.Cl.O[C@@H](COc1cccc2ncccc12)CN1CCN([C@@H]2c3ccccc3[C@@H]3[C@H](c4ccccc42)C3(F)F)CC1
area under concentration-response curve [1]: 515 | area under concentration-response curve [3]: 490 | AC50 viability [4]: 23.5 µM | AC50 viability [5]: 16.6 µM

CC[C@H](C)[N]1C=C(C)C2=C1C=C(C=C2C(=O)NC\C3=C(C)\C=C(\C)NC3=O)C4=CC=C(N=C4)N5CCNCC5
area under concentration-response curve [1]: 449 | area under concentration-response curve [3]: 493 | AC50 viability [4]: 18.6 µM | AC50 viability [5]: 23.5 µM

NC(=O)c1ccc2nc(-c3ccc(C4(N)CCC4)cc3)c(-c3ccccc3)n2n1
area under concentration-response curve [1]: 483 | area under concentration-response curve [3]: 465 | AC50 viability [4]: 18.6 µM | AC50 viability [5]: 16.6 µM

Cc1c(C(=O)NN2CCCCC2)nn(-c2ccc(Cl)cc2Cl)c1-c1ccc(Cl)cc1
area under concentration-response curve [1]: 396 | area under concentration-response curve [3]: 433 | AC50 viability [4]: 20.9 µM | AC50 viability [5]: 18.6 µM

Cc1ccc(NC(=O)c2ccc(CN3CCN(C)CC3)cc2)cc1Nc1nccc(-c2cccnc2)n1
area under concentration-response curve [1]: 484 | area under concentration-response curve [3]: 469 | AC50 viability [4]: 23.5 µM | AC50 viability [5]: 20.9 µM

COc1ccc(Cl)c(Nc2ncnc3cc(OCC4CCN(C)CC4)c(OC)cc23)c1
area under concentration-response curve [1]: 513 | area under concentration-response curve [3]: 581 | AC50 viability [4]: 23.5 µM | AC50 viability [5]: 26.3 µM

COc1cc(C(=O)NC2CCN(C)CC2)ccc1Nc1ncc2c(n1)N(C1CCCC1)CCC(=O)N2C(C)C
area under concentration-response curve [1]: 504 | area under concentration-response curve [3]: 538 | AC50 viability [4]: 26.3 µM | AC50 viability [5]: 23.5 µM

CCN1C(=O)N\2CC3=CC(=CC(=C3[C@@H](C)\C=C2C14CCN(CC4)CC5=CC(=CC(=C5)C)C)OC)OC
area under concentration-response curve [1]: 426 | area under concentration-response curve [3]: 514 | AC50 viability [4]: 37.2 µM | AC50 viability [5]: 18.6 µM

NC(=O)N1CCC(CC(=O)N2CCC([C@H]3c4ncc(Br)cc4CCc4cc(Cl)cc(Br)c43)CC2)CC1
area under concentration-response curve [1]: 440 | area under concentration-response curve [3]: 440 | AC50 viability [4]: 37.2 µM | AC50 viability [5]: 23.5 µM

C[S+](=O)([O-])CCNCc1ccc(-c2ccc3ncnc(Nc4ccc(OCc5cccc(F)c5)c(Cl)c4)c3c2)o1
area under concentration-response curve [1]: 420 | area under concentration-response curve [3]: 456 | AC50 viability [4]: 23.5 µM | AC50 viability [5]: 20.9 µM

CN(C)CCCNC(=O)c1ccc(-c2cc(O)c3ncccc3c2)cc1
area under concentration-response curve [1]: 376 | area under concentration-response curve [3]: 360 | AC50 viability [4]: 16.6 µM | AC50 viability [5]: 0.332 µM

COc1cc(N2CCN(C)CC2)ccc1Nc1ncc2c(n1)N(C)c1ccccc1C(=O)N2
area under concentration-response curve [1]: 479 | area under concentration-response curve [3]: 492 | AC50 viability [4]: 16.6 µM | AC50 viability [5]: 23.5 µM
